# Measurements reported in ChEMBL document CHEMBL3044671, “Synthesis and in vitro antimicrobial and anti-tubercular evaluation of some quinoline-based azitidinone and thiazolidinone analogues” (2013).
# Key:
# Assay type in all cases: functional
# Pseudomonas aeruginosa [1] = assay: Antimicrobial activity against Pseudomonas aeruginosa MTCC 741 assessed as growth inhibition by agar streak dilution method
# Bacillus subtilis [2] = assay: Antimicrobial activity against Bacillus subtilis MTCC 430 assessed as growth inhibition by agar streak dilution method
# Aspergillus niger [3] = assay: Antimicrobial activity against Aspergillus niger MTCC 282 assessed as diameter of growth zone inhibition by agar streak dilution method; note: test concentration or dose not given here
# Staphylococcus aureus [4] = assay: Antimicrobial activity against Staphylococcus aureus MTCC 96 assessed as growth inhibition by agar streak dilution method
# Aspergillus niger [5] = assay: Antimicrobial activity against Aspergillus niger MTCC 282 assessed as growth inhibition by agar streak dilution method
# [6] = test system: Mycobacterium tuberculosis; assay: Antitubercular activity against Mycobacterium tuberculosis H37Rv assessed as growth inhibition by BACTEC MGIT method
# Pseudomonas aeruginosa [7] = assay: Antimicrobial activity against Pseudomonas aeruginosa MTCC 741 assessed as diameter of growth zone inhibition by agar streak dilution method; note: test concentration or dose not given here
# Escherichia coli [8] = assay: Antimicrobial activity against Escherichia coli MTCC 739 assessed as diameter of growth zone inhibition by agar streak dilution method; note: test concentration or dose not given here
# Candida albicans [9] = assay: Antimicrobial activity against Candida albicans MTCC 183 assessed as growth inhibition by agar streak dilution method
# Escherichia coli [10] = assay: Antimicrobial activity against Escherichia coli MTCC 739 assessed as growth inhibition by agar streak dilution method
# Candida albicans [11] = assay: Antimicrobial activity against Candida albicans MTCC 183 assessed as diameter of growth zone inhibition by agar streak dilution method; note: test concentration or dose not given here
# Staphylococcus aureus [12] = assay: Antimicrobial activity against Staphylococcus aureus MTCC 96 assessed as diameter of growth zone inhibition by agar streak dilution method; note: test concentration or dose not given here
# Bacillus subtilis [13] = assay: Antimicrobial activity against Bacillus subtilis MTCC 430 assessed as diameter of growth zone inhibition by agar streak dilution method; note: test concentration or dose not given here
SMILES,MIC (Pseudomonas aeruginosa [1]) [µg/mL],MIC (Bacillus subtilis [2]) [µg/mL],diameter of the inhibition zone (DIZ) (Aspergillus niger [3]) [mm],MIC (Staphylococcus aureus [4]) [µg/mL],MIC (Aspergillus niger [5]) [µg/mL],MIC [6] [µg/mL],diameter of the inhibition zone (DIZ) (Pseudomonas aeruginosa [7]) [mm],diameter of the inhibition zone (DIZ) (Escherichia coli [8]) [mm],MIC (Candida albicans [9]) [µg/mL],MIC (Escherichia coli [10]) [µg/mL],diameter of the inhibition zone (DIZ) (Candida albicans [11]) [mm],diameter of the inhibition zone (DIZ) (Staphylococcus aureus [12]) [mm],diameter of the inhibition zone (DIZ) (Bacillus subtilis [13]) [mm]
O=C1C(Cl)C(c2cc3ccccc3nc2S)N1c1ccccc1Cl (stereo not given),50,12.5,20,6.25,62.5,125,22,23,100,50,19,24,25
O=C1C(Cl)C(c2cc3ccccc3nc2S)N1c1cccc(Cl)c1 (stereo not given),62.5,12.5,25,12.5,50,125,23,22,62.5,62.5,21,24,25
O=C1C(Cl)C(c2cc3ccccc3nc2S)N1c1ccc(Cl)cc1 (stereo not given),25,6.25,25,6.25,25,62.5,24,24,100,25,22,26,25
O=C1C(Cl)C(c2cc3ccccc3nc2S)N1c1ccc(F)cc1 (stereo not given),25,6.25,25,6.25,12.5,62.5,23,24,25,12.5,24,26,25
Cc1cnc(N2C(=O)C(Cl)C2c2cc3ccccc3nc2S)s1 (stereo not given),100,6.25,22,25,50,125,22,24,62.5,12.5,24,24,22
O=C1CSC(c2cc3ccccc3nc2S)N1c1ccccc1 (stereo not given),100,100,16,100,100,1000,17,16,100,100,15,19,17
Cc1ccccc1N1C(=O)CSC1c1cc2ccccc2nc1S (stereo not given),1000,100,16,100,100,500,14,15,100,100,17,20,15
Cc1cccc(N2C(=O)CSC2c2cc3ccccc3nc2S)c1 (stereo not given),100,100,20,62.5,100,500,18,19,100,100,19,21,19
Cc1ccc(N2C(=O)CSC2c2cc3ccccc3nc2S)cc1 (stereo not given),100,100,17,100,100,250,19,19,100,100,15,20,20
O=C1CSC(c2cc3ccccc3nc2S)N1c1ccccc1[N+](=O)[O-] (stereo not given),25,62.5,23,62.5,50,250,23,23,62.5,62.5,22,22,23
O=C1CSC(c2cc3ccccc3nc2S)N1c1cccc([N+](=O)[O-])c1 (stereo not given),25,50,23,50,25,125,23,24,100,6.25,20,22,22
O=C1CSC(c2cc3ccccc3nc2S)N1c1ccc([N+](=O)[O-])cc1 (stereo not given),12.5,50,25,12.5,25,62.5,24,23,100,6.25,18,23,23
O=C1CSC(c2cc3ccccc3nc2S)N1c1ccccc1Cl (stereo not given),62.5,12.5,21,6.25,62.5,125,23,23,100,12.5,22,23,25
O=C1CSC(c2cc3ccccc3nc2S)N1c1cccc(Cl)c1 (stereo not given),12.5,3.12,25,6.25,50,125,25,22,62.5,50,22,24,25
O=C1CSC(c2cc3ccccc3nc2S)N1c1ccc(Cl)cc1 (stereo not given),25,3.12,25,6.25,12.5,62.5,24,23,100,25,24,25,25
O=C1CSC(c2cc3ccccc3nc2S)N1c1ccc(F)cc1 (stereo not given),50,6.25,26,3.12,12.5,62.5,24,24,25,12.5,26,25,25
Cc1cnc(N2C(=O)CSC2c2cc3ccccc3nc2S)s1 (stereo not given),62.5,25,23,12.5,62.5,62.5,23,24,62.5,12.5,24,24,23
O=C(O)c1cn(C2CC2)c2cc(N3CCNCC3)c(F)cc2c1=O [CIPROFLOXACIN],≤ 1,≤ 1,–,≤ 1,–,–,33,32,–,≤ 1,–,30,31
NNC(=O)c1ccncc1 [ISONIAZID],–,–,–,–,–,0.2,–,–,–,–,–,–,–
CC(=O)N1CCN(c2ccc(OCC3COC(Cn4ccnc4)(c4ccc(Cl)cc4Cl)O3)cc2)CC1 (stereo not given) [KETOCONAZOLE],–,–,30,–,≤ 3,–,–,–,≤ 1,–,33,–,–
CO[C@H]1/C=C/O[C@@]2(C)Oc3c(C)c(O)c4c(O)c(c(/C=N/N5CCN(C)CC5)c(O)c4c3C2=O)NC(=O)/C(C)=C\C=C\[C@H](C)[C@H](O)[C@@H](C)[C@@H](O)[C@@H](C)[C@H](OC(C)=O)[C@@H]1C [RIFAMPIN],–,–,–,–,–,40,–,–,–,–,–,–,–
